From patent publication US20180153952A1, “COMPOSITIONS AND METHODS FOR TREATING POST OPERATIVE COGNITIVE DYSFUNCTION AND NEUROIN[…] ANNEXIN A1 (ANXA1) PEPTIDES” (Duke University, priority 2016, published 2018)
“Also recorded” adds a separate entry of the source.

How the values were obtained:
[1] = test system: cerebral microglia activation; assay: Microglia activation after orthopedic surgery (F4/80 immunostaining, stereological analysis); type: in vivo; conditions: mice after orthopedic surgery, ANXA1sp 1 mg/kg 1 hr before surgery, 24 hr post-surgery, F4/80 positive cells, vs untreated animals
Procedure: Male C57BL/6 mice (12 weeks) were subjected to orthopedic surgery and treated with ANXA1sp (1 mg/kg) 1 hr before surgery. At 24 hr of post-surgery, brain levels of microglia activation was determined by immunostaining with a biomarker F4/80. Stereological analysis of F4/80 positive cells was shown in the bar graph. N=5 (Naïve), 10 (Surgery), and 4 (ANXA1sp). Data are presented as mean+SD. **P<0.01 vs. Naïve; #P<0.05 vs. Surgery. One-way ANOVA with Multiple Comparisons. (FIG. 13).

SIRT3 = assay: Hippocampal mitochondrial SIRT3 expression after orthopedic surgery; type: in vivo; conditions: mice after orthopedic surgery, time-dependent
ANXA1 = assay: Hippocampal/brain ANXA1 levels after orthopedic surgery; type: in vivo, mice
Excerpt: Surgery reduced levels of endogenous ANXA1 in the brain at 24 hr (FIG. 25A, FIG. 25B for quantification). […] N=3-4; **P<0.01, ***P<0.001. One-way ANOVA with Multiple Comparisons.

MPO = assay: Plasma/systemic MPO levels after orthopedic surgery; type: in vivo, mice
Excerpt: (§1) Systemic cytokines, including IL-6, are found elevated in patients developing delirium and POCD and may serve as potential biomarkers. […] N=4-5 (adult), N=1-5 (aged); **P<0.01. Two-way ANOVA with Multiple Comparisons.

NLRP3 inflammasome = assay: NLRP3 expression/inflammasome activation in hippocampus after orthopedic surgery (Western blot); type: in vivo, mice; conditions: for NLRP3 activation: ANXA1sp 1 mg/kg 30 min before surgery
Procedure: (§2) Representative Western Blot images in adult (12 weeks-old) and aged (20 months-old) C57BL/6 mice for NLRP3 (FIG. 18A), Caspase-1 (FIG. 18C), and IL1β (FIG. 18E) (three key components of the inflammasome complex) and quantification. […] Data are presented as mean±SD. […] One-way ANOVA with Multiple Comparisons.
Male C57BL/6 mice received ANXA1sp (1 mg/kg) 30 min before surgery. […] Data are presented as mean±SD. […] Two-way ANOVA with Multiple Comparisons.

Caspase-1 = Caspase-1 activation in hippocampus after orthopedic surgery (Western blot); type: in vivo, mice
Procedure: as §2
(§3) Male C57BL/6 mice received ANXA1sp (1 mg/kg) 30 min before surgery. Representative blots of Caspase-1 activation and IL1β secretion. […] Data are presented as mean±SD. N=4-5; *P<0.05, **P<0.01, ***P<0.001. Two-way ANOVA with Multiple Comparisons.

IL-1β = IL-1β secretion in hippocampus after orthopedic surgery (Western blot); type: in vivo, mice
Procedure: as §2, §3

memory function = assay: "What-when-where" task of object recognition memory after orthopedic surgery; type: in vivo, mice
Excerpt: After orthopedic surgery mice have reduced preferences for the replacement of objects (what), and for the original location of the displaced object (where); but they show a […] preference the order of presentation (when). […] Data are presented as mean±SD. N=10. *P<0.05 and **P<0.01 vs. surgery+vehicle using MANOVA. (FIG. 17).

[2] = test system: OXPHOS mitochondrial electron transport chain complexes; assay: Hippocampal total OXPHOS (Western blot) after orthopedic surgery; type: in vivo; conditions: mice (13 weeks) after orthopedic surgery
Procedure: (§4) Male C57BL/6 mice (13 weeks) were subjected to orthopedic surgery. Naïve animals (no surgery at 0 hour) were used as baseline-control. At 3, 6, and 24 hours of post-surgery, the total OXPHOS in hippocampus was determined by Western blot (FIG. 23A) and (FIG. 23B). Time-dependent increased hippocampal ATP production were determined by ELISA (FIG. 23C). […] Data are presented as mean±SD. N=4; **P<0.01, ***P<0.001. One-way ANOVA with Multiple Comparisons.

[3] = test system: hippocampal ATP production; assay: Hippocampal ATP production (ELISA) after orthopedic surgery; type: in vivo; conditions: mice (13 weeks) after orthopedic surgery
Procedure: as §4

citrate synthetase (CS) = assay: Hippocampus citrate synthetase (CS, Western blot) after orthopedic surgery; type: in vivo; conditions: mice (13 weeks) after orthopedic surgery
Procedure: Male C57BL/6 mice (13 weeks) were subjected to orthopedic surgery while naïve animals were as baseline-control. At 3, 6, and 24 hours of post-surgery, the hippocampus CS was determined by Western blot (FIG. 24A) and (FIG. 24B). […] Data are presented as mean±SD. N=4; **P<0.01, ***P<0.001, ****P<0.0001. One-way ANOVA with Multiple Comparisons.

IL-6 = assay: Systemic IL-6 after orthopedic surgery; type: in vivo; conditions: mice after orthopedic surgery
Excerpt: as §1

[4] = brain (hippocampus) of mice after orthopedic surgery

Substance: Ac-Gln-Ala-Trp [ANXA1sp]
- cerebral microglia activation [1]: significantly attenuated
- hippocampal mitochondrial SIRT3 expression/activation (SIRT3): significantly increases/activates; also recorded: significantly higher expression
- levels of ANXA-1 in the brain (ANXA1; 24 hr after surgery, 1 mg/kg ANXA1sp): significantly increase
- hippocampal ANXA1 levels (ANXA1; mice after orthopedic surgery): significantly increased
- plasma levels of meloperoxidase (MPO) (MPO; mice after orthopedic surgery, time-dependent): reduced; also recorded: significantly decreased
- systemic levels of MPO (MPO; mice, 24 hr after orthopedic surgery, listed as ANXA-1sp): reduced
- NLRP3 activation (NLRP3 inflammasome; adult and aged mice, 24 hr after surgery): significantly reduced
- NLRP3 activation (NLRP3 inflammasome; aged mice, 6 hr after surgery): significantly reduced
- NLRP3 expression or NLRP3 inflammasome activation (NLRP3 inflammasome; [4]): inhibits; also recorded: significant inhibition; also recorded: reduces
- levels of Caspase-1 (Caspase-1; adult and aged mice after surgery, ANXA1sp 1 mg/kg 30 min before surgery): significantly reduced
- activation of caspase-1 (Caspase-1; [4]): significantly inhibited
- secreted IL1β (IL-1β; adult mice after surgery, ANXA1sp 1 mg/kg 30 min before surgery): no significance
- activation of IL-1β (IL-1β; [4]): significantly inhibited
- memory deficits (what-when-where object recognition preference scores) (memory function; mice after orthopedic surgery, vs surgery+vehicle): significantly improves
- exploration of the displaced/replaced object (memory function; surgery+ANXA1sp mice, vs original anchor object and two most recently seen objects): greater exploration
- hippocampal total OXPHOS, particularly complex IV [2]: significantly regulated
- hippocampal ATP production [3]: attenuated
- numbers of CS (citrate synthetase, biomarker of numbers of mitochondria) (citrate synthetase (CS)): significantly increased
- systemic IL-6 (IL-6): significantly reduced
- systemic IL-6 (IL-6; listed as ANXA-1sp): reduced
